# Experiments:
# IP L1210/Cisplatin [1] = assay: Activity against IP-implanted L1210/Cisplatin leukemia resistant to cisplatin, 60 day test (Table 4); format: in vivo, Female CD2Fl mice
# Procedure: (§1) Biological properties of the compounds of the present invention were determined following the protocol described in Cancer Chemotherapy Reports, Vol. 3, No. 3, 1972 which report is incorporated herein by reference.
# Other known mechanisms of resistance for other classes of agents, such as gene amplification or target enzyme change or amplication, also need to be explored. The experiments summarized in Table 3 were conducted at the same time against both sublines using the same drug preparations. […] These experiments were repeated in a second laboratory as documented in Table 4. However, in these experiments the animals were held for 60 rather than 30 days to evaluate whether or not long-term survivors are produced after drug treatment in a more challenging setting. […]
# These experiments (23-00081 3LE31 and 23-00003 3DP3l) were conducted concurrently at the Mason Research Institute, Worcester, MA under the supervision of Dr. William Cobb. See Table 4 for experimental details. The diluent control animals bearing L1210 leukemia lived a median of 8.3 days and gained 1.6 grams by Day 5. […] Female CD2Fl mice were used for these experiments.
# IP L1210 leukemia = assay: Mouse optimal (highest tolerated) dose, IP L1210 leukemia, Days 1, 5 and 9 schedule (Table 7); format: in vivo
# Text: *IP L1210 leukemia, Days 1, 5 and 9 schedule. Highest tolerated dose in a
# least 2 of 3 experiments (i.e,. animal weight difference (testcontrol)
# IP L1210/Cisplatin [2] = assay: Activity against IP-implanted L1210/Cisplatin leukemia resistant to cisplatin, 30 day test (Table 3); format: in vivo, Female CD2Fl mice
# Procedure: as §1
# (§2) Other known mechanisms of resistance for other classes of agents, such as gene amplification or target enzyme change or amplication, also need to be explored. The experiments summarized in Table 3 were conducted at the same time against both sublines using the same drug preparations. […] These experiments were repeated in a second laboratory as documented in Table 4. However, in these experiments the animals were held for 60 rather than 30 days to evaluate whether or not long-term survivors are produced after drug treatment in a more challenging setting.
# This experiment (A8-00005 3LE31) was conducted at the Southern Research Institute, Birmingham, Ala. under the supervision of Dr. Daniel Griswold. The protocols were the same as those published previously (Geran et al., Cancer Chemotherapy Reports 3: No. 2, 1972 [Attachment 11]). 10^5 cells were implanted intraperitoneally in CD2Fl male mice on Day 0. Drug treatments were given intraperitoneally as single injections at the doses indicated on Days 1, 5 and 9 after tumor implantation. The diluent was saline except for NSC-271674 where 5% sodium bicarbonate was used. All drugs were prepared fresh on the day of injection, and all were administered in solution. Median survival times for both control and drug-treated mice were determined and expressed as a percentage (% T/C). Body weights were determined on Day 5 and expressed as a weight difference (body weight of the drug-treated animals minus that of the control animals in grams) (T-C). The diluent control animals lived a median of 8.4 days and gained 1.9 grams by Day 5 in this experiment. All animals, including Day 30 survivors, were used in the calculation of median survival times. The log10 change in tumor burden refers to the net log change in viable tumor cell population at the end of therapy (Rx) as compared to the start of therapy; e.g., a […] means that there was a […] and a 3 log change means there was a 1000-fold increase in tumor burden at the end of therapy. The tumor burden at the start of therapy was about 6.1×10^5 cells in this experiment. […]
# IP L1210 = assay: Activity against IP-implanted L1210 leukemia sensitive to cisplatin, 30 day test (Table 3); format: in vivo, Female CD2Fl mice
# Procedure: as §1, §2
# This experiment (A8-00005 3LE31) was conducted at the Southern Research Institute, Birmingham, Ala. under the supervision of Dr. Daniel Griswold. The protocols were the same as those published previously (Geran et al., Cancer Chemotherapy Reports 3: No. 2, 1972 [Attachment 11]). 10^5 cells were implanted intraperitoneally in CD2Fl male mice on Day 0. Drug treatments were given intraperitoneally as single injections at the doses indicated on Days 1, 5 and 9 after tumor implantation. The diluent was saline except for NSC-271674 where 5% sodium bicarbonate was used. All drugs were prepared fresh on the day of injection, and all were administered in solution. Median survival times for both control and drug-treated mice were determined and expressed as a percentage (% T/C). Body weights were determined on Day 5 and expressed as a weight difference (body weight of the drug-treated animals minus that of the control animals in grams) (T-C). The diluent control animals lived a median of 8.4 days and gained 1.9 grams by Day 5 in this experiment. All animals, including Day 30 survivors, were used in the calculation of median survival times. The log10 change in tumor burden refers to the net log change in viable tumor cell population at the end of therapy (Rx) as compared to the start of therapy; e.g., a […] means that there was a […] and a 3 log change means there was a 1000-fold increase in tumor burden at the end of therapy. The tumor burden at the start of therapy was about 6.1×10^5 cells in this experiment.
# These experiments (A8-00008 3LE31 and A8-00001 3DP31) were conducted concurrently at the Southern Research Institute, Birmingham, Ala. under the supervision of Dr. Daniel Griswold. See Table 4 for experimental details. The diluent control animals bearing L1210 leukemia lived a median of 8.6 days and gained 1.3 grams by Day 5. […] Female CD2Fl mice were used for these experiments.
compound,measurement,setting,value
"[Cl][Pt-2]1([Cl])([Cl])([Cl])[NH2+][C@@H]2CCCC[C@H]2[NH2+]1 [trans (l), (1R,2R)-Tetrachloro-trans-1,2-cyclohexanediammine platinum (IV)]",60 Day Survivors/Total,IP L1210/Cisplatin [1]; 1 mg/kg/dose,0/10
same,Body Weight Difference,IP L1210/Cisplatin [1]; 1 mg/kg/dose,-1.1 Grams
same,Median % T/C,IP L1210/Cisplatin [1]; 1 mg/kg/dose,132%
same,60 Day Survivors/Total,IP L1210/Cisplatin [1]; 2 mg/kg/dose,4/10
same,Body Weight Difference,IP L1210/Cisplatin [1]; 2 mg/kg/dose,-0.8 Grams
same,Median % T/C,IP L1210/Cisplatin [1]; 2 mg/kg/dose,239%
same,60 Day Survivors/Total,IP L1210/Cisplatin [1]; 4 mg/kg/dose,3/8
same,Body Weight Difference,IP L1210/Cisplatin [1]; 4 mg/kg/dose,-1.7 Grams
same,Median % T/C,IP L1210/Cisplatin [1]; 4 mg/kg/dose,376%
same,60 Day Survivors/Total,IP L1210/Cisplatin [1]; 8 mg/kg/dose,0/10
same,Body Weight Difference,IP L1210/Cisplatin [1]; 8 mg/kg/dose,-3.5 Grams
same,Median % T/C,IP L1210/Cisplatin [1]; 8 mg/kg/dose,133%
same,60 Day Survivors/Total,IP L1210/Cisplatin [1]; 16 mg/kg/dose,0/10
same,Body Weight Difference,IP L1210/Cisplatin [1]; 16 mg/kg/dose,-7.3 Grams
same,Median % T/C,IP L1210/Cisplatin [1]; 16 mg/kg/dose,Toxic
same,Mouse Optimal Dose (highest tolerated dose in at least 2 of 3 experiments),IP L1210 leukemia,8 mg/kg
same,30 Day Survivors/Total,IP L1210/Cisplatin [2]; 1 mg/kg/dose,0/6
same,Approx. Log10 Change in Tumor Burden at End of RX,IP L1210/Cisplatin [2]; 1 mg/kg/dose,~2.8 log10
same,Median % T/C,IP L1210/Cisplatin [2]; 1 mg/kg/dose,118%
same,30 Day Survivors/Total,IP L1210/Cisplatin [2]; 2 mg/kg/dose,0/6
same,Approx. Log10 Change in Tumor Burden at End of RX,IP L1210/Cisplatin [2]; 2 mg/kg/dose,~2.5 log10
same,Median % T/C,IP L1210/Cisplatin [2]; 2 mg/kg/dose,137%
same,30 Day Survivors/Total,IP L1210/Cisplatin [2]; 4 mg/kg/dose,5/6
same,Approx. Log10 Change in Tumor Burden at End of RX,IP L1210/Cisplatin [2]; 4 mg/kg/dose,~-5.9 log10
same,Median % T/C,IP L1210/Cisplatin [2]; 4 mg/kg/dose,322%
same,30 Day Survivors/Total,IP L1210/Cisplatin [2]; 8 mg/kg/dose,5/6
same,Approx. Log10 Change in Tumor Burden at End of RX,IP L1210/Cisplatin [2]; 8 mg/kg/dose,~-5.9 log10
same,Median % T/C,IP L1210/Cisplatin [2]; 8 mg/kg/dose,322%
same,30 Day Survivors/Total,IP L1210/Cisplatin [2]; 16 mg/kg/dose,0/6
same,Approx. Log10 Change in Tumor Burden at End of RX,IP L1210/Cisplatin [2]; 16 mg/kg/dose,~3.1 log10
same,Median % T/C,IP L1210/Cisplatin [2]; 16 mg/kg/dose,89%
same,30 Day Survivors/Total,IP L1210; 1 mg/kg/dose,0/6
same,Approx. Log10 Change in Tumor Burden at End of RX,IP L1210; 1 mg/kg/dose,~2.5 log10
same,Median % T/C,IP L1210; 1 mg/kg/dose,143%
same,30 Day Survivors/Total,IP L1210; 2 mg/kg/dose,1/6
same,Approx. Log10 Change in Tumor Burden at End of RX,IP L1210; 2 mg/kg/dose,~-0.4 log10
same,Median % T/C,IP L1210; 2 mg/kg/dose,197%
same,30 Day Survivors/Total,IP L1210; 4 mg/kg/dose,2/6
same,Approx. Log10 Change in Tumor Burden at End of RX,IP L1210; 4 mg/kg/dose,~-5.9 log10
same,Median % T/C,IP L1210; 4 mg/kg/dose,313%
same,30 Day Survivors/Total,IP L1210; 8 mg/kg/dose,4/6
same,Approx. Log10 Change in Tumor Burden at End of RX,IP L1210; 8 mg/kg/dose,~-5.9 log10
same,Median % T/C,IP L1210; 8 mg/kg/dose,348%
same,30 Day Survivors/Total,IP L1210; 16 mg/kg/dose,0/6
same,Median % T/C,IP L1210; 16 mg/kg/dose,93%
"Tetrachloro-cis-1,2-cyclohexanediamine platinum (IV)",60 Day Survivors/Total,IP L1210/Cisplatin [1]; 2 mg/kg/dose,0/10
same,Body Weight Difference,IP L1210/Cisplatin [1]; 2 mg/kg/dose,-0.3 Grams
same,Median % T/C,IP L1210/Cisplatin [1]; 2 mg/kg/dose,121%
same,60 Day Survivors/Total,IP L1210/Cisplatin [1]; 4 mg/kg/dose,0/10
same,Body Weight Difference,IP L1210/Cisplatin [1]; 4 mg/kg/dose,0.0 Grams
same,Median % T/C,IP L1210/Cisplatin [1]; 4 mg/kg/dose,130%
same,60 Day Survivors/Total,IP L1210/Cisplatin [1]; 8 mg/kg/dose,1/10
same,Body Weight Difference,IP L1210/Cisplatin [1]; 8 mg/kg/dose,-2.7 Grams
same,Median % T/C,IP L1210/Cisplatin [1]; 8 mg/kg/dose,191%
same,60 Day Survivors/Total,IP L1210/Cisplatin [1]; 16 mg/kg/dose,0/10
same,Body Weight Difference,IP L1210/Cisplatin [1]; 16 mg/kg/dose,-5.4 Grams
same,Median % T/C,IP L1210/Cisplatin [1]; 16 mg/kg/dose,Toxic
same,60 Day Survivors/Total,IP L1210/Cisplatin [1]; 32 mg/kg/dose,0/10
same,Body Weight Difference,IP L1210/Cisplatin [1]; 32 mg/kg/dose,-5.1 Grams
same,Median % T/C,IP L1210/Cisplatin [1]; 32 mg/kg/dose,Toxic
same,60-day (long term) survivors,"IP L1210/Cisplatin [1]; L1210/cisplatin, tolerated doses",only one long term survivor
same,Mouse Optimal Dose (highest tolerated dose in at least 2 of 3 experiments),IP L1210 leukemia,8 mg/kg
same,30 Day Survivors/Total,IP L1210/Cisplatin [2]; 1 mg/kg/dose,0/6
same,Approx. Log10 Change in Tumor Burden at End of RX,IP L1210/Cisplatin [2]; 1 mg/kg/dose,~3.0 log10
same,Median % T/C,IP L1210/Cisplatin [2]; 1 mg/kg/dose,105%
same,30 Day Survivors/Total,IP L1210/Cisplatin [2]; 2 mg/kg/dose,0/6
same,Approx. Log10 Change in Tumor Burden at End of RX,IP L1210/Cisplatin [2]; 2 mg/kg/dose,~2.9 log10
same,Median % T/C,IP L1210/Cisplatin [2]; 2 mg/kg/dose,110%
same,30 Day Survivors/Total,IP L1210/Cisplatin [2]; 4 mg/kg/dose,0/6
same,Approx. Log10 Change in Tumor Burden at End of RX,IP L1210/Cisplatin [2]; 4 mg/kg/dose,~2.9 log10
same,Median % T/C,IP L1210/Cisplatin [2]; 4 mg/kg/dose,111%
same,30 Day Survivors/Total,IP L1210/Cisplatin [2]; 8 mg/kg/dose,0/6
same,Approx. Log10 Change in Tumor Burden at End of RX,IP L1210/Cisplatin [2]; 8 mg/kg/dose,~2.4 log10
same,Median % T/C,IP L1210/Cisplatin [2]; 8 mg/kg/dose,138%
same,30 Day Survivors/Total,IP L1210/Cisplatin [2]; 16 mg/kg/dose,3/6
same,Approx. Log10 Change in Tumor Burden at End of RX,IP L1210/Cisplatin [2]; 16 mg/kg/dose,~-5.9 log10
same,Median % T/C,IP L1210/Cisplatin [2]; 16 mg/kg/dose,322%
same,30 Day Survivors/Total,IP L1210; 1 mg/kg/dose,0/6
same,Approx. Log10 Change in Tumor Burden at End of RX,IP L1210; 1 mg/kg/dose,~2.8 log10
same,Median % T/C,IP L1210; 1 mg/kg/dose,125%
same,30 Day Survivors/Total,IP L1210; 2 mg/kg/dose,0/6
same,Approx. Log10 Change in Tumor Burden at End of RX,IP L1210; 2 mg/kg/dose,~2.6 log10
same,Median % T/C,IP L1210; 2 mg/kg/dose,139%
same,30 Day Survivors/Total,IP L1210; 4 mg/kg/dose,0/6
same,Approx. Log10 Change in Tumor Burden at End of RX,IP L1210; 4 mg/kg/dose,~2.4 log10
same,Median % T/C,IP L1210; 4 mg/kg/dose,148%
same,30 Day Survivors/Total,IP L1210; 8 mg/kg/dose,2/6
same,Approx. Log10 Change in Tumor Burden at End of RX,IP L1210; 8 mg/kg/dose,~-5.9 log10
same,Median % T/C,IP L1210; 8 mg/kg/dose,325%
same,30 Day Survivors/Total,IP L1210; 16 mg/kg/dose,1/6
same,Approx. Log10 Change in Tumor Burden at End of RX,IP L1210; 16 mg/kg/dose,~-5.7 log10
same,Median % T/C,IP L1210; 16 mg/kg/dose,267%
